Laboratory results as given in patent US20260345568A1, “INHIBITING MONOACYLGLYCEROL LIPASE (MAGL)” (PSY THERAPEUTICS, INC., priority 2023, published 2026).

Tests used:
[1] = molecular target: T1, human recombinant FAAH (Homo sapiens, UniProt O00519); assay: FAAH counter-screen, AMC arachidonoyl amide substrate (Example B); type: biochemical; details: Method B; 20 uM AAMCA substrate
T1 construct: purchased Cayman Chemical 700302 (enzyme); kit Item No. 10005196
T1 sequence (O00519 1-579): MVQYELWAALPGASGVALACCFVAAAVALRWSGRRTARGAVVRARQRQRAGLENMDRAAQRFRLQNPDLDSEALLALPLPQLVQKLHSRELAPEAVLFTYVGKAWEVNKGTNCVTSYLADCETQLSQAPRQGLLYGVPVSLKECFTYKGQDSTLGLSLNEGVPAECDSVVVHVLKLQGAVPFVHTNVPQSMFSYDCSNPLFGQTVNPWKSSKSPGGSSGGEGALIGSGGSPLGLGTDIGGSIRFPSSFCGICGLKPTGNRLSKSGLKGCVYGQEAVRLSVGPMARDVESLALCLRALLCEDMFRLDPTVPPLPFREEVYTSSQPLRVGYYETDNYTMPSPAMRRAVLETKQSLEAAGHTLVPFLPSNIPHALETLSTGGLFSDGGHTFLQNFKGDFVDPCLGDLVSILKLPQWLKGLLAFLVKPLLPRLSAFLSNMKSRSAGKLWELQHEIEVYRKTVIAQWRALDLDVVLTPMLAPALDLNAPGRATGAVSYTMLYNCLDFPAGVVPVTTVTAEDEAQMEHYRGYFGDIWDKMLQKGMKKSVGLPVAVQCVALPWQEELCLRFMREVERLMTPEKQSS
Experimental: Comparative compound potency at FAAH can be obtained with the following assay.
MAGL inhibitor compounds were also counter-screened for FAAH inhibition potency using the following assay. Assessment of FAAH inhibition was performed using Fatty Acid Amide Hydrolase Inhibitor Screening Assay Kit (Cayman Item No. 10005196) following manufacture's instruction with some modifications. The kit utilizes human recombinant FAAH and the fluorescent substrate, AMC Arachidonoyl amide (AAMCA). […] 300 nL or 30 nL of test compounds were delivered into a 384-well black plate (Corning, 3573) using a Labcyte Echo, followed by addition of 15 μL of FAAH enzyme (Cayman, 700302) in assay buffer. After a 5-minute pre-incubation at room temperature, 10 μL of AAMCA was added in assay buffer to start the reaction. Final concentration of FAAH enzyme is not specified and AAMCA substrate was used at the 20 uM. After these dilutions, the final concentration of the test compounds ranged from 100 μM to 5.08 nM or 10 μM down to 0.508 nM. The reaction was allowed to progress for 60 minutes, while the plate was read on an Envision plate reader at an Ex/Em of 350/460 nm with readings every minute. The data was analyzed in Microsoft Excel, using the slope between 30 and 59 minutes. The average of the no-enzyme wells (background) was subtracted from the data. The background-subtracted slope data was converted to % activity using the average of wells with enzyme and DMSO vehicle. IC50 values were calculated using GraphPad software (Sigmoidal dose response, variable slope equation).
Compounds listed in Table D were tested in the FAAH Counter-screen of Example B.

[2] = molecular target: T2, human MAGL (Homo sapiens, UniProt Q99685); assay: MAGL inhibition potency, 4-nitrophenyl acetate (4NPA) hydrolysis, absorbance 405 nm (Example A); type: biochemical; details: Method 12: Reaction Biology MAGL enzyme, 15 nM; 4NPA substrate; read-out: MAGL Potency (Detection Method)
T2 construct: recombinant MAGL enzyme (aa 2-303 RBC, internal preparation)
T2 sequence (Q99685 2-303): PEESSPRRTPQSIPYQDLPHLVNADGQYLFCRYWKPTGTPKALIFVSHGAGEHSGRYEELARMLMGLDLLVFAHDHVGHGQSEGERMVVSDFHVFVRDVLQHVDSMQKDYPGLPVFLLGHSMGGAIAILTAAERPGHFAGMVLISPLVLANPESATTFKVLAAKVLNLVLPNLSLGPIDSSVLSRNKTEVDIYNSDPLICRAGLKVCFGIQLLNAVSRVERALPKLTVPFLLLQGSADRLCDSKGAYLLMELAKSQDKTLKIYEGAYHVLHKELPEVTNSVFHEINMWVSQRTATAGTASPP
Description: The potency of certain compounds for inhibiting MAGL were obtained using the following assays.
The monoacylglycerol lipase inhibitor screening assay kit from Cayman Chemical was used to measure the MAGL potency for the compounds in Tables A-1, A-2, A-3.
Cayman's Monoacylglycerol Lipase Inhibitor Screening Assay provides a method for screening human MAGL inhibitors. MAGL hydrolyzes 4-nitrophenylacetate resulting in a yellow product, 4-nitrophenol, with an absorbance of 405-412 nm.
MAGL Inhibition was measured by the following assay. Monoacylglycerol Lipase (MAGL) inhibition was measured using recombinant MAGL enzyme (aa 2-303 RBC, internal preparation) and the substrate 4-Nitrophenyl acetate (4NPA) (Sigma-Aldrich, N8130). Hydrolysis of the substrate in the presence of the enzyme was measured by absorbance at 405 nm. 10 μL of assay buffer (10 mM Tris pH 7.5, 1 mM EDTA, 0.9% DMSO) was added to a black 384-well non-binding plate with clear bottom (Greiner, 781906) for each reaction. Compounds were dispensed using an acoustic liquid handler (Echo, Beckman) at 45 nL (0.1% DMSO). Test compounds and control for MAGL inhibitor JZL-184 (Caymen Chemical, 13158) were tested in 10-concentration IC50 mode with 3-fold serial dilution at a starting concentration of […]. DMSO control wells were included for reference. A 10.8 nM (1.8×) MAGL mix in assay buffer was prepared, with 25 μL added to each reaction well, for a final assay concentration of […]. No enzyme wells received 25 μL of buffer. Plate was incubated at room temperature for 30 minutes. 35 mM solution of 4NPA in methanol was prepared daily A 4.5×4NPA substrate solution was prepared in assay buffer and 10 μL was added to each reaction well, for a final assay concentration of 0.25 mM. Plate was spun for 1 minute at 1000 rpm before measuring absorbance using a CLARIOstar plate reader (BMG Labtech). A kinetic reading at 405 nm was done every minute for 30 minutes. Data was analyzed using the linear slope of the reaction progress curve and the average of the no-enzyme wells (background) was subtracted from the data. The background-subtracted slope data was converted to % activity using the average of wells with enzyme and DMSO vehicle. IC50s were calculated using GraphPad software (Sigmoidal dose response, variable slope equation).
Table 8 provides potency measurements of MAGL inhibition measured using the Potency Assay of Example A above, with the following modifications described in Table C.
The number after each letter for potency measurement value indicates the Method from Table C that was used to obtain that measurement value (e.g. “A(1)” indicates an IC50 measurement of <50 nM obtained from the Method 1 of Example A in Table C).

[3] = molecular target: T3, Flag-tagged MAGL enzyme (Homo sapiens, UniProt Q99685); assay: Reversible MAGL inhibition, washout of immobilized Flag-tagged MAGL enzyme (Example C); type: biochemical; details: for activity at 1 µM: 0.5 h, relative to control (no inhibitor before washout), immediately following a 30 minute washout, pre-washout 1 μM, read-out: % MAGL activity returning after washout; for degree to which MAGL enzymatic activity returned following washout: pre-washout compound concentration 1 μM
T3 sequence (Q99685 1-303): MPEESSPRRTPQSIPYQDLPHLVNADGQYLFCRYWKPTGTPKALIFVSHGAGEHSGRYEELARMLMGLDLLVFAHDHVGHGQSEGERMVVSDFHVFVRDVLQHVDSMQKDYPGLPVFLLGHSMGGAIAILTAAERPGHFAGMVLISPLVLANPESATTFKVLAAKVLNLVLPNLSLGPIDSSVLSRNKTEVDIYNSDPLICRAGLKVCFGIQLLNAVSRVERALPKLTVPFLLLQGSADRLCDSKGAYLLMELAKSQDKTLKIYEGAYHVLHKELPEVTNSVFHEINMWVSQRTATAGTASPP
Experimental: The reversible mechanism of MAGL inhibition of a test compound of Formula (I) can be determined. Flag-tagged MAGL enzyme will be immobilized on anti-Flag beads Immobilized enzyme will be incubated+/−inhibitor at a dose that produces complete inhibition. Colorimetric substrate (4-NPA) will be added and the reaction monitored on a plate reader for 30 minutes to verify complete inhibition. Immobilized enzyme will then be washed thoroughly to remove the inhibitor, and fresh substrate will be added. The reaction will be monitored for an additional 30 minutes; returning enzymatic activity will indicate reversibility of inhibition.
For some test compounds, % activity returning after washout may be less than 100% if complete compound unbinding takes longer than 30 minutes.

[4] = system: brain and peripheral 2-AG; brain AA; details: irreversible MAGL inhibition; cited from earlier work

| IC50 [1] [µM] | IC50 [2] [µM] | activity at 1 µM [3] [%] | degree to which MAGL enzymatic activity returned following washout [3] | SMILES | brain AA [4] | brain and peripheral 2-AG [4] |
| --- | --- | --- | --- | --- | --- | --- |
| > 10 | < 0.05 | > 50 | 123% | O=C(c1cc(O)ccc1F)N1CC2(CC(n3nc(C(F)(F)F)cc3-c3ccccn3)C2)C1 [Compound 5, (2-fluoro-5-hydroxyphenyl){6-[5-(2-pyridyl)-3-(trifluoromethyl)-1-pyrazolyl]-2-aza-2-spiro[3.3]heptyl}methanone] |  |  |
| > 10 | < 0.05 | > 50 | 122% | O=C(c1cc(O)ccc1F)N1CC2(CC(n3nc(-c4ccc(=O)[nH]c4)cc3C(F)(F)F)C2)C1 [Compound 10, 5-(1-{2-(2-fluoro-5-hydroxybenzoyl)-2-aza-6-spiro[3.3]heptyl}-5-(trifluoromethyl)-3-pyrazolyl)-2(1H)-pyridinone] |  |  |
| > 10 | < 0.05 | > 50 | 135% | O=C(c1cc(O)ccc1F)N1CC2(CC(n3nc(-c4ccc[nH]c4=O)cc3C(F)(F)F)C2)C1 [Compound 12, 3-(1-{2-(2-fluoro-5-hydroxybenzoyl)-2-aza-6-spiro[3.3]heptyl}-5-(trifluoromethyl)-3-pyrazolyl)-2(1H)-pyridinone] |  |  |
| > 10 | < 0.05 | > 50 | 99% | COc1ncccc1-c1cc(C(F)(F)F)n(C2CC3(C2)CN(C(=O)c2cc(O)ccc2F)C3)n1 [Compound 15, (2-fluoro-5-hydroxyphenyl)(6-(3-(2-methoxypyridin-3-yl)-5-(trifluoromethyl)-1H1-pyrazol-1-yl)-2-azaspiro[3.3]heptan-2-yl)methanone] |  |  |
| > 10 | < 0.05 | > 50 | 89% | COc1ccc(-c2cc(C(F)(F)F)n(C3CC4(C3)CN(C(=O)c3cc(O)ccc3F)C4)n2)cn1 [Compound 17, (2-fluoro-5-hydroxyphenyl) (6-(3-(6-methoxypyridin-3-yl)-5-(trifluoromethyl)-1H-pyrazol-1-yl)-2-azaspiro [3.3]heptan-2-yl) methanone] |  |  |

| SMILES | IC50 [1] [µM] | IC50 [2] [µM] | activity at 1 µM [3] [%] | degree to which MAGL enzymatic activity returned following washout [3] | brain AA [4] | brain and peripheral 2-AG [4] |
| --- | --- | --- | --- | --- | --- | --- |
| O=C(Oc1ccc([N+](=O)[O-])cc1)N1CCC(C(O)(c2ccc3c(c2)OCO3)c2ccc3c(c2)OCO3)CC1 [JZL-184, reference compound] |  |  | < 1 | complete lack of return of MAGL enzymatic activity | reduce | increase |
